The SangsterLogP compilation

Test: method code SF-AS, from DOI: 10.1002/jps.2600820804

logP	Compound
2.21	Cc1cccc(C)c1C(=O)O
-0.12	NC(=O)c1ccccc1[N+](=O)[O-]
1.59	O=C(O)c1c(F)cccc1F
2.42	COC(=O)c1c(F)cccc1Cl
3.4	CCc1cccc(CC)c1OC(C)=O
2.7	COC(=O)c1ccc(C)cc1
2.08	CCOc1cccc(OC(C)=O)c1
2.85	COC(=O)c1cccc(Cl)c1
2.74	COC(=O)c1ccccc1I
2.79	COC(=O)c1c(Cl)cccc1Cl
2.95	COC(=O)c1ccc(Br)cc1
2.55	COC(=O)c1c(C)cccc1C
1.56	O=C(O)c1c(Cl)cccc1[N+](=O)[O-]
0	N#Cc1ccccc1C(N)=O
2.21	COC(=O)c1c(Cl)cccc1[N+](=O)[O-]
2.32	CC(=O)Oc1c(C)cccc1C
1.82	COC(=O)c1ccccc1F

logP	Compound
1.61	COc1cccc(OC(C)=O)c1
1.89	COC(=O)c1cccc([N+](=O)[O-])c1
2.11	O=C(O)c1c(F)cccc1Cl
1.96	Oc1c(F)cccc1F
1.96	COC(=O)c1c(F)cccc1F
2.31	Cc1cccc(Cl)c1C(=O)O
2.45	CCc1cccc(OC(C)=O)c1
2.28	COC(=O)c1ccc(F)cc1
2.77	COC(=O)c1cccc(C)c1
2.8	Cc1cccc(Cl)c1O
3.58	O=C(O)c1c(Br)cccc1Br
1.66	COC(=O)c1ccccc1[N+](=O)[O-]
0.71	CSc1ccccc1C(N)=O
2.04	COC(=O)c1ccccc1OC
1.94	COC(=O)c1ccc([N+](=O)[O-])cc1
2.94	CC(=O)Oc1c(Cl)cccc1Cl

Compound	logP
CCc1cccc(CC)c1O	3.03
Oc1c(Br)cccc1Br	3.36
